Values of other authors as cited in EP0486445A2, “Polyfunctional derivatives of cyclodextrin” (Chiellini, Emo, priority 1990, dated 1992).

Legend:
[1] = compared to the starting cyclodextrin
[2] = compared to the starting cyclodextrin; degree of substitution lower than 7

Row | water solubility [1] | Molecule | toxicity [2]
1 | much larger water solubility | 2-hydroxypropyl- β-cyclodextrin [HP- βCD] | lower toxicity
2 | much more water soluble | COC[C@H]1O[C@@H]2O[C@H]3[C@H](O)[C@@H](OC)[C@@H](O[C@H]4[C@H](O)[C@@H](OC)[C@@H](O[C@H]5[C@H](O)[C@@H](OC)[C@@H](O[C@H]6[C@H](O)[C@@H](OC)[C@@H](O[C@H]7[C@H](O)[C@@H](OC)[C@@H](O[C@H]8[C@H](O)[C@@H](OC)[C@@H](O[C@H]1[C@H](O)[C@H]2OC)O[C@@H]8COC)O[C@@H]7COC)O[C@@H]6COC)O[C@@H]5COC)O[C@@H]4COC)O[C@@H]3COC [DM-β CD, eptakis-(2,6-O-dimethyl)-β-cyclodextrin] | –
3 | much larger water solubility | hydroxyethyl-β-cyclodextrin [HE- βCD] | lower toxicity
